Measured values from PMC6377810 (ACS chemical biology, 2018).
Read-outs that look alike come from different tables or passages of the source.

Legend:
Hsc70 [1] = molecular target: T1, Hsc70 (Homo sapiens, UniProt P11142); assay: malachite green ATP turnover assay; assay type: biochemical
Hsc70 [2] = molecular target: T1, Hsc70; assay: direct binding by quench of compound fluorescence
Hsc70 [3] = molecular target: T1, Hsc70; assay: direct binding by quench of compound fluorescence; remark: listed apart in the source
Hsp72 (Homo sapiens) [4] = molecular target: Hsp72 (Homo sapiens) (UniProt P0DMV8); details: cited from earlier work
Sequence of Hsp72 (Homo sapiens) (P0DMV8 2-641): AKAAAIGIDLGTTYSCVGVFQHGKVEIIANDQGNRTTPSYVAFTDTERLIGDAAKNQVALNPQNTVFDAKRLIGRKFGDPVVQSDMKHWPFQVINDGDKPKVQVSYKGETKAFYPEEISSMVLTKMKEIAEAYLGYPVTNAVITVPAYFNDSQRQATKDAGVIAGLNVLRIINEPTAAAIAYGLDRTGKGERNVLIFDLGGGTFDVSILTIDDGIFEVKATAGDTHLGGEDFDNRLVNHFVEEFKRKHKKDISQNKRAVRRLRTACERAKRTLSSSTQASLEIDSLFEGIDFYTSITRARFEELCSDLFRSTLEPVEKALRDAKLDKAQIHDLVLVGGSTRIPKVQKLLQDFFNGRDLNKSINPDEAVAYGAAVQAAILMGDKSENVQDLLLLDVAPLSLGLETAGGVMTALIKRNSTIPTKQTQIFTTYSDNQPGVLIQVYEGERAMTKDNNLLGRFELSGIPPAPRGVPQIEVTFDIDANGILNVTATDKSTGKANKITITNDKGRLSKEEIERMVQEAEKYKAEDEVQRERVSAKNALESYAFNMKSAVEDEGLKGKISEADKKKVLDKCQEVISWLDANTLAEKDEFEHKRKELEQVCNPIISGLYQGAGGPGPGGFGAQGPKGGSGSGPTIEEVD

Hsp72 (Homo sapiens) [5] = molecular target: Hsp72 (Homo sapiens) (UniProt P0DMV8); details: cited from earlier work; remark: listed apart in the source

T1 sequence (P11142 whole entry): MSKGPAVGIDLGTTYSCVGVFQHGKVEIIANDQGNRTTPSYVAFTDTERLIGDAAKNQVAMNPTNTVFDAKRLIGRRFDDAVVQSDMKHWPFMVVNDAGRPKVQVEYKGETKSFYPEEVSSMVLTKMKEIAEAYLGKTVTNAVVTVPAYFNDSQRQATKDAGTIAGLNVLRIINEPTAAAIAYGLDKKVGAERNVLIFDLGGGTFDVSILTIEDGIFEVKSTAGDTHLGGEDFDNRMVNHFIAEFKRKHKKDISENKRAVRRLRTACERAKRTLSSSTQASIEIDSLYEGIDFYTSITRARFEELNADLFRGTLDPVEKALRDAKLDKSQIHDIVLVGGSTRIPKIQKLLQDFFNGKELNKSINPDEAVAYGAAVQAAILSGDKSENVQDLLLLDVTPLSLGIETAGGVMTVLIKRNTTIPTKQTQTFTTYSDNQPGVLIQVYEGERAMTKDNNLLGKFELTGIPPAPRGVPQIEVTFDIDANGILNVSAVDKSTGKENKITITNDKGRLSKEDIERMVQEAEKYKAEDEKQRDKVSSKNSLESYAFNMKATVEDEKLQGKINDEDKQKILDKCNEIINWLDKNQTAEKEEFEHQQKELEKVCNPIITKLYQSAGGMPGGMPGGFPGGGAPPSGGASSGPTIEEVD
Sequence of BAG1 (Q99933 whole entry): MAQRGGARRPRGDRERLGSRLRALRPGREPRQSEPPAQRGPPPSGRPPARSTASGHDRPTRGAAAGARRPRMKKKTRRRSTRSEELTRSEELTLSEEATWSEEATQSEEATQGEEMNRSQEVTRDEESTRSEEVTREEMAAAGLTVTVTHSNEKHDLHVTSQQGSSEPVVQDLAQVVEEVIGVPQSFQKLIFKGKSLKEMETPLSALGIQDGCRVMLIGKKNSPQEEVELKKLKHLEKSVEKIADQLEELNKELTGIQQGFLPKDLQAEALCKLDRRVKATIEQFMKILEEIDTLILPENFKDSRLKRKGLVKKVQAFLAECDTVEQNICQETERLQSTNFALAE

Nc1ncnc2c1ncn2[C@@H]1O[C@H](COP(=O)(O)OP(=O)(O)OP(=O)(O)O)[C@@H](O)[C@H]1O [ATP]
malachite green ATP turnover assay; partial proteolysis in the ATP-bound state (Hsc70 [1]): ~ 2 pmol/µM Hsc70/min

CCn1c(=O)/c(=C2\Sc3cc(Cl)ccc3N2C)s/c1=C\c1scc[n+]1Cc1cccc(C(F)(F)F)c1 [JG-115, 2-((Z)-((E)-5-(6-chloro-3-methylbenzo[d]thiazol-2(3H)-ylidene)-3-ethyl-4-oxothiazolidin-2-ylidene)methyl)-3-(3-(trifluoromethyl)benzyl)thiazol-3-ium chloride]
Kd (Hsc70 [2]): ~3.1 µM

CCn1c(=O)/c(=C2\Sc3cc(Cl)ccc3N2C)s/c1=C\c1scc[n+]1Cc1ccc(C(F)(F)F)cc1 [JG-118, 2-((Z)-((E)-5-(6-chloro-3-methylbenzo[d]thiazol-2(3H)-ylidene)-3-ethyl-4-oxothiazolidin-2-ylidene)methyl)-3-(4-(trifluoromethyl)benzyl)thiazol-3-ium chloride]
Kd (Hsc70 [2]): ~2.6 µM

CCn1c(=O)/c(=C2\Sc3cc(Cl)ccc3N2C)s/c1=C\c1scc[n+]1Cc1ccccc1OC(F)F [JG-237, 2-((Z)-((E)-5-(6-chloro-3-methylbenzo[d]thiazol-2(3H)-ylidene)-3-ethyl-4-oxothiazolidin-2-ylidene)methyl)-3-(2-(difluoromethoxy)benzyl)thiazol-3-ium chloride]
Kd (Hsc70 [3]): 1.5 ± 0.3 µM

BAG1 (from UniProt Q99933)
Kd (Hsp72 (Homo sapiens) [4]): 0.008 µM | Kd (Hsp72 (Homo sapiens) [5]): 0.036 µM
